Measurements as given in ChEMBL document CHEMBL5705899 (Biochem J, 2014).
The source made the active and inactive calls. The calls are words filed in the database; no cut-off is given here.

Legend:
[1] = target: CDK3/Cyclin E (Homo sapiens) (UniProt P24864+Q00526); assay: Inhibition of human CDK3/CyclinE1 at 1 uM using RBER-CHKtide as substrate in presence of 33P-ATP by ProQinase assay; assay type: protein-complex assay
[2] = target: Tyrosine-protein kinase JAK1 (Homo sapiens) (UniProt P23458); assay: Inhibition of human JAK1 at 1 uM using RBER-IRStide as substrate in presence of 33P-ATP by ProQinase assay
[3] = target: Tyrosine-protein kinase Yes (Homo sapiens) (UniProt P07947); assay: Inhibition of human YES at 1 uM using polyEY as substrate in presence of 33P-ATP by ProQinase assay
Chain of Tyrosine-protein kinase Yes (Homo sapiens) (P07947 2-543 limits assumed): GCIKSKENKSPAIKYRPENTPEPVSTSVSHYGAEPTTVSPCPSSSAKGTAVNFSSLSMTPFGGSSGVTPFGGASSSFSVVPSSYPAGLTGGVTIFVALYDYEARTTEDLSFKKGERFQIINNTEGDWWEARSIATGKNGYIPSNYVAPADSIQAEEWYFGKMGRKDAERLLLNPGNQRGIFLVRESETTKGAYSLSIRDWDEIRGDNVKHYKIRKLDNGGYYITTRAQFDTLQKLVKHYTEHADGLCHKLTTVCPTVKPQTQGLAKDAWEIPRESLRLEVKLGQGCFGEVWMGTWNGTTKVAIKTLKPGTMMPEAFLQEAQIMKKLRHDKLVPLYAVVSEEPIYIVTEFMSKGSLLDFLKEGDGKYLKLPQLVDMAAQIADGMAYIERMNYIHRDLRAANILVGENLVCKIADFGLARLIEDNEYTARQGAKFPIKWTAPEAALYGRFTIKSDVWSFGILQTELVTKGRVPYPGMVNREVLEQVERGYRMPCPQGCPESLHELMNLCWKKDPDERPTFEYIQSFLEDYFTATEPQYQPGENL

[4] = target: Activin receptor type-1-like (Homo sapiens) (UniProt P37023); assay: Inhibition of human ACVRL1 at 1 uM using casein as substrate in presence of 33P-ATP by ProQinase assay
[5] = target: MAP kinase-activated protein kinase 2 (Homo sapiens) (UniProt P49137); assay: Inhibition of human MAPKAPK2 at 1 uM using RBER-CHKtide as substrate in presence of 33P-ATP by ProQinase assay
Chain of MAP kinase-activated protein kinase 2 (Homo sapiens) (P49137 whole entry, looked up): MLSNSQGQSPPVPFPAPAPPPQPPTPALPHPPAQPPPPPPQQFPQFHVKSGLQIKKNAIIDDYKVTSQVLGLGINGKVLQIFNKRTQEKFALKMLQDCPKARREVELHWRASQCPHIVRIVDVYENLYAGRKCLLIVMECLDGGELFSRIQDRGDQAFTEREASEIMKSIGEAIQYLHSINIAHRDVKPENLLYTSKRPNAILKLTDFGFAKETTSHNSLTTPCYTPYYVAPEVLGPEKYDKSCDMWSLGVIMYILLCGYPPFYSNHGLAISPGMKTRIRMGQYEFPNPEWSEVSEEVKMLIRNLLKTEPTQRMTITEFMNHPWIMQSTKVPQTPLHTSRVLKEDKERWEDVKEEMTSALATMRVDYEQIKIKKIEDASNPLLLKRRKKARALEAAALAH

[6] = target: PI3-kinase p110-delta/p85-alpha (Homo sapiens, UniProt O00329); assay: Inhibition of human PIK3CD/PIK3R1 using PIP2/PS as substrate by ADP-Glo assay; assay type: protein-complex assay
[7] = target: T1, 3-phosphoinositide-dependent protein kinase 1 (Homo sapiens) (UniProt O15530); assay: Inhibition of recombinant human His6-tagged PDK1 (52 to 556 residues) expressed in baculovirus infected Sf21 cells assessed as remaining activity at 1 uM using PDKtide as substrate incubated for 30 mins in presence of [gamma-33P]ATP by filter binding method relative to control
T1 sequence (whole entry): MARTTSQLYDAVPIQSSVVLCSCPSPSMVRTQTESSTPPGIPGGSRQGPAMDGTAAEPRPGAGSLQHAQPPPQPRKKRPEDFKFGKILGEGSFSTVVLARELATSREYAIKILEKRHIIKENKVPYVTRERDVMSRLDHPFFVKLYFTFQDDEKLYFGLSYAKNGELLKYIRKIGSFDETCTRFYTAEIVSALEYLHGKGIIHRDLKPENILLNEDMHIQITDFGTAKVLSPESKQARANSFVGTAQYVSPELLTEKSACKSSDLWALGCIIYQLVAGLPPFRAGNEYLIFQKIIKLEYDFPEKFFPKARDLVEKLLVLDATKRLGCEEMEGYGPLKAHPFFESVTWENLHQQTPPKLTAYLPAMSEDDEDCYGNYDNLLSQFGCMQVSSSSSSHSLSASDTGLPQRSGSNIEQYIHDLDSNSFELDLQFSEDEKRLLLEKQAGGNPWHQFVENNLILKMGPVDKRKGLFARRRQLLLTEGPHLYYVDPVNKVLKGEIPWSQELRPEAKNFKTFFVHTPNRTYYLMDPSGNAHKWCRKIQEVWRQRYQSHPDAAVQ

[8] = target: Mitogen-activated protein kinase kinase kinase 1 (Homo sapiens) (UniProt Q13233); assay: Inhibition of recombinant human N-terminal GST/C-terminal His6-tagged MEKK1 ((877 to 1563 residues) expressed in Escherichia coli assessed as remaining activity at 1 uM using MBP as substrate incubated for 30 mins in presence of [gamma-33P]ATP by filter binding method relative to control
Chain of Mitogen-activated protein kinase kinase kinase 1 (Homo sapiens) (Q13233 whole entry, the tested form may be a part): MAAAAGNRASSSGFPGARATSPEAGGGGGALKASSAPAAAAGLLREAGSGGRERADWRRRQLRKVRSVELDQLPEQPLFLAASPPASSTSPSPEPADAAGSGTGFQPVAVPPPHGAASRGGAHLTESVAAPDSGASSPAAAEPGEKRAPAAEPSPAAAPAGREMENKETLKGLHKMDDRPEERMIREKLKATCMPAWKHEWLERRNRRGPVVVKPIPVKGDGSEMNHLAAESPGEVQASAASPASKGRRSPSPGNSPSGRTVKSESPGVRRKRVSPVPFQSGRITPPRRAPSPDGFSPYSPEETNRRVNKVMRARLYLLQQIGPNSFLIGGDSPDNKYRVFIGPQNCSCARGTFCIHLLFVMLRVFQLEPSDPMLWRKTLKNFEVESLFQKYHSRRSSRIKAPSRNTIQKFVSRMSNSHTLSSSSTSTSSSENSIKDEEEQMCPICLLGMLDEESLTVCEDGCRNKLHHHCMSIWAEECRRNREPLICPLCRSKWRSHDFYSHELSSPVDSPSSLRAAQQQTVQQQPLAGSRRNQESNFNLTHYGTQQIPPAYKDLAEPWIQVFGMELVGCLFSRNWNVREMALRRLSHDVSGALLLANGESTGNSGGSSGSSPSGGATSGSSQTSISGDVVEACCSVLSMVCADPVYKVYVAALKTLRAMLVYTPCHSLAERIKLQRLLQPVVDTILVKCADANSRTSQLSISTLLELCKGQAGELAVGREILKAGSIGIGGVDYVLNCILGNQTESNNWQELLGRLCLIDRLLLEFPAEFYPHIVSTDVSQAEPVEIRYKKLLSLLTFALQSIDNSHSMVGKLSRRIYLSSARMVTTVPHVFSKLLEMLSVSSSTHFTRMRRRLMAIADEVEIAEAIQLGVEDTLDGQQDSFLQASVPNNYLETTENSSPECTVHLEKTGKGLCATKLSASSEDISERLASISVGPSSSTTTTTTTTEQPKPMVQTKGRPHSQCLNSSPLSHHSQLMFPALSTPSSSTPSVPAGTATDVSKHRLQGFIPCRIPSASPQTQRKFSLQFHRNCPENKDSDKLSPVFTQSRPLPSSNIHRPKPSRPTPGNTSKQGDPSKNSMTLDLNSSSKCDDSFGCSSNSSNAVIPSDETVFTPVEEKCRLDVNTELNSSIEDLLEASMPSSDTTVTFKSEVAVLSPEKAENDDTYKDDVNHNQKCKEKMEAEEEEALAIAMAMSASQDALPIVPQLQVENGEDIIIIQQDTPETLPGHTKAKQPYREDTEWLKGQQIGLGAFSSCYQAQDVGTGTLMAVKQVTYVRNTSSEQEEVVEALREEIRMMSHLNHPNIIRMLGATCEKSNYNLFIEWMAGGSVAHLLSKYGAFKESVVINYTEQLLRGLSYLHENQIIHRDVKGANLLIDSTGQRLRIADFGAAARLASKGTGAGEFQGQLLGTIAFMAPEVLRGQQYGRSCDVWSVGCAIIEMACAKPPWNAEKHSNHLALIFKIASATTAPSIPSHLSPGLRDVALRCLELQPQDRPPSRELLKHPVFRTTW

[9] = target: Activin receptor type-1B (Homo sapiens) (UniProt P36896); assay: Inhibition of human ACVR1B at 1 uM using RBER-CHKtide as substrate in presence of 33P-ATP by ProQinase assay
[10] = target: Ephrin type-A receptor 5 (Homo sapiens) (UniProt P54756); assay: Inhibition of human EPHA5 at 1 uM using polyEY as substrate in presence of 33P-ATP by ProQinase assay
[11] = target: Rho-associated protein kinase 1 (Homo sapiens) (UniProt Q13464); assay: Inhibition of human ROCK1 at 1 uM using 3xChocktide-PKC as substrate in presence of 33P-ATP by ProQinase assay
[12] = target: Proto-oncogene tyrosine-protein kinase Src (Homo sapiens) (UniProt P12931); assay: Inhibition of recombinant human N-terminal His6-tagged SRC (1 to 536 residues) expressed in baculovirus infected Sf21 cells assessed as remaining activity at 1 uM using KVEKIGEGTYGVVYK as substrate incubated for 30 mins in presence of [gamma-33P]ATP by filter binding method relative to control
[13] = target: Tyrosine-protein kinase Lck (Homo sapiens) (UniProt P06239); assay: Inhibition of recombinant human N-terminal His6-tagged LCK (2 to 509 residues) expressed in baculovirus infected Sf21 cells assessed as remaining activity at 1 uM using KVEKIGEGTYGVVYK as substrate incubated for 30 mins in presence of [gamma-33P]ATP by filter binding method relative to control
[14] = target: Serine/threonine-protein kinase 4 (Homo sapiens) (UniProt Q13043); assay: Inhibition of human MST1 at 1 uM using RB-CTF as substrate in presence of 33P-ATP by ProQinase assay
[15] = target: Serine/threonine-protein kinase tousled-like 1 (Homo sapiens) (UniProt Q9UKI8); assay: Inhibition of recombinant human N-terminal GST-tagged TLK1 (1 to 766 residues) expressed in Escherichia coli assessed as remaining activity at 1 uM using MBP as substrate incubated for 30 mins in presence of [gamma-33P]ATP by filter binding method relative to control
[16] = target: Protein kinase C alpha type (Homo sapiens) (UniProt P17252); assay: Inhibition of recombinant human N-terminal His6-tagged PKCalpha (1 to 672 residues) expressed in baculovirus infected Sf21 cells assessed as remaining activity at 1 uM using Histone H1 as substrate incubated for 30 mins in presence of [gamma-33P]ATP by filter binding method relative to control
[17] = target: Serine/threonine-protein kinase Nek6 (Homo sapiens) (UniProt Q9HC98); assay: Inhibition of human NEK6 at 1 uM using RBER-GSK3 as substrate in presence of 33P-ATP by ProQinase assay
[18] = target: SRSF protein kinase 1 (Homo sapiens) (UniProt Q96SB4); assay: Inhibition of human SRPK1 at 1 uM using MBP as substrate in presence of 33P-ATP by ProQinase assay
Chain of SRSF protein kinase 1 (Homo sapiens) (Q96SB4 whole entry, the tested form may be a part): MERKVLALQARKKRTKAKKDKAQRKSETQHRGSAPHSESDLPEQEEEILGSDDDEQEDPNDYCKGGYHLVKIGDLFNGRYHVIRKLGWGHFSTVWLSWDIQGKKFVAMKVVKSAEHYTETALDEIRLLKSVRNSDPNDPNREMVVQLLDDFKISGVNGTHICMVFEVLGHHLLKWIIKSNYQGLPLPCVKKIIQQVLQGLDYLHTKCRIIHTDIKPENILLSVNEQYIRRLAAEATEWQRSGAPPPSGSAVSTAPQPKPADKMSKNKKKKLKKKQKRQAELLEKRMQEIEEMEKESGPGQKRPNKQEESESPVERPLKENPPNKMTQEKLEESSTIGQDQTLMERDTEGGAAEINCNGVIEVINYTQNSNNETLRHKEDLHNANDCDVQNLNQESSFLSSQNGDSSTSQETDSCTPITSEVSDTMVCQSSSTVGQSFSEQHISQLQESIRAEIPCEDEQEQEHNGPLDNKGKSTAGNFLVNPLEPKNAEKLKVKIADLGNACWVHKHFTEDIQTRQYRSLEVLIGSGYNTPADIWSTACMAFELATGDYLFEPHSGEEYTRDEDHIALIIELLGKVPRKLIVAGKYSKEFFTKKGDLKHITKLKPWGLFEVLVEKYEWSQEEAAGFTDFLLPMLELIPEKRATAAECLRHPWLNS

[19] = target: Homeodomain-interacting protein kinase 2 (Homo sapiens) (UniProt Q9H2X6); assay: Inhibition of recombinant human N-terminal GST-tagged HIPK2 (165 to 564 residues) expressed in Escherichia coli assessed as remaining activity at 1 uM using MBP as substrate incubated for 30 mins in presence of [gamma-33P]ATP by filter binding method relative to control
Chain of Homeodomain-interacting protein kinase 2 (Homo sapiens) (Q9H2X6 whole entry, looked up, the tested form may be a part): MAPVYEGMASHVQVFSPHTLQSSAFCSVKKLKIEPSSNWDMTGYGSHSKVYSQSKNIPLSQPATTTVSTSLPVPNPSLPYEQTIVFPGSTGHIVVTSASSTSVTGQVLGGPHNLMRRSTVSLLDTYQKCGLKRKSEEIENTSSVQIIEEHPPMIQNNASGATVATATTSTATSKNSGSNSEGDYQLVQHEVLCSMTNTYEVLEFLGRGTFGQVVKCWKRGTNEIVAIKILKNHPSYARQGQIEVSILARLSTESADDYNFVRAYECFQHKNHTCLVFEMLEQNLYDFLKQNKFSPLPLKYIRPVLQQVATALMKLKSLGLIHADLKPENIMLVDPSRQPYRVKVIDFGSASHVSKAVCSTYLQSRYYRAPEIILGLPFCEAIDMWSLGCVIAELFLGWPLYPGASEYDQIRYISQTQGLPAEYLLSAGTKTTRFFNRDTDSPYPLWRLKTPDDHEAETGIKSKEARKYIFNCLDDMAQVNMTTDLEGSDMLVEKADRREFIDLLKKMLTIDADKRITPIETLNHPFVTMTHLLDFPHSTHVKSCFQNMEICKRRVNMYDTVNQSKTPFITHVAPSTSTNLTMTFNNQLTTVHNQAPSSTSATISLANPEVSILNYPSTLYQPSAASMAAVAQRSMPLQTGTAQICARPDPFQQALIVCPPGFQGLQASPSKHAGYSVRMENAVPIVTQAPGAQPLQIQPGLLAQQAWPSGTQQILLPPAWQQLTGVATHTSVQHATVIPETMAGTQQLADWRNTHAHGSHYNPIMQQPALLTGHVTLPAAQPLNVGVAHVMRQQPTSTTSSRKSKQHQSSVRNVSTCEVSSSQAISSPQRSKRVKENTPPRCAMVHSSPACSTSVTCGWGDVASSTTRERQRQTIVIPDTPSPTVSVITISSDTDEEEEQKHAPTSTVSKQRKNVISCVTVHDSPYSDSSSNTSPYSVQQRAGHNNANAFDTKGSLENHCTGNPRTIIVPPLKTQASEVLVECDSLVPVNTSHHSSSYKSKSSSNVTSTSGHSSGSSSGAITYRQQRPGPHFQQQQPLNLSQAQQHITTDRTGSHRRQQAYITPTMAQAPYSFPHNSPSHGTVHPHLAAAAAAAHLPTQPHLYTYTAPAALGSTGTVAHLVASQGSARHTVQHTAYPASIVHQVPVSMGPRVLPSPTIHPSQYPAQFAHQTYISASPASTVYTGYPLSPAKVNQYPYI

[20] = target: Mitogen-activated protein kinase 3 (Homo sapiens) (UniProt P27361); assay: Inhibition of recombinant human N-terminal GST-tagged ERK1 (2 to 379 residues) expressed in Escherichia coli assessed as remaining activity at 1 uM using MBP as substrate incubated for 30 mins in presence of [gamma-33P]ATP by filter binding method relative to control

Chain of CDK3/Cyclin E (Homo sapiens) (P24864 whole entry, looked up): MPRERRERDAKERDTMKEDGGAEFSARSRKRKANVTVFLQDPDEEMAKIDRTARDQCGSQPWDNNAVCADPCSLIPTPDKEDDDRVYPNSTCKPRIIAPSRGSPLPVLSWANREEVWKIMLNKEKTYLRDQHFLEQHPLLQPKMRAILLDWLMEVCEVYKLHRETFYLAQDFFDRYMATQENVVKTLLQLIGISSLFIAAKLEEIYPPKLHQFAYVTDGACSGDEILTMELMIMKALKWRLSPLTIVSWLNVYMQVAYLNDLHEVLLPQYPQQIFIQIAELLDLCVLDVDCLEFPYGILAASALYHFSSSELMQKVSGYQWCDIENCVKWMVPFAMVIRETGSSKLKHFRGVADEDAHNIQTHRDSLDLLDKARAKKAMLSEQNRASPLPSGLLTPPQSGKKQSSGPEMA
Chain of CDK3/Cyclin E (Homo sapiens) (Q00526 whole entry, looked up): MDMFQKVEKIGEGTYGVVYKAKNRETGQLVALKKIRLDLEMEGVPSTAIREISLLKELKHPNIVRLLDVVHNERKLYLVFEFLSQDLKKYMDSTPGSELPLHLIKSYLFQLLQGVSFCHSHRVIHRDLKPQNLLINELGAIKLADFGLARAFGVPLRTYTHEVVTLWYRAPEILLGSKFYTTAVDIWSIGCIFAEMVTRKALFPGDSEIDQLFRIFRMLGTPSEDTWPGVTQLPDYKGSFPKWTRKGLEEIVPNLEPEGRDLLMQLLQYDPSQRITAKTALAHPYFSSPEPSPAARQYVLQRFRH

SMILES: CC(C)(O)CNc1ncc(-c2ccnc(Nc3ccnc(Cl)c3)n2)c(CC2CC2)n1
- inhibition [1]: inactive
- inhibition [2]: inactive
- inhibition [3]: inactive
- inhibition [4]: inactive
- inhibition [5]: inactive
- IC50 [6]: > 10 µM
- Activity [7]: 105%
- Activity [8]: 109%
- inhibition [9]: inactive
- inhibition [10]: inactive
- inhibition [11]: inactive
- Activity [12]: 84%
- Activity [13]: 92%
- inhibition [14]: inactive
- Activity [15]: 100%
- Activity [16]: 119%
- inhibition [17]: inactive
- inhibition [18]: inactive
- Activity [19]: 96%
- Activity [20]: 108%
